Data as given in patent publication US7566531B2, “Selective whole cell quartz crystal microbalance biosensors” (University of Massachusetts, priority 2003, dated 2009).

Columns and labels:
[1] = test system: normal capillary endothelial cells; assay: cell removal from QCM by PBS-EGTA; type: cell-based
Protocol: The above-described QCM biosensor was used to study cells and the ECM made by the cells. 50,000 normal capillary endothelial cells were seeded onto the QCM and maintained in DMEM-10% Calf Serum for 3-4 days to synthesize ECM. The cells were then removed by incubating in PBS-0.25 mM EGTA three times for 6 hours according to the method described in Paige et al., Cell Dev. Biol., 27A:151-157, 1991. During this process, the frequency and resistance of the QCM were recorded and plotted.
To corroborate this discovery, immunocytochemistry was carried out to examine actin stress fiber in the cells using standard techniques.

MCF-7 cells [2] = assay: whole cell QCM biosensor, Δf and ΔR after drug addition; type: cell-based, human; conditions: for QCM frequency decrease, Phase I / change in QCM resistance, Phase I: hour 0 to hour 6 post drug addition; for QCM frequency decrease, Phase I / change in QCM resistance, Phase I / QCM frequency increase, Phase II: 0.1 μM docetaxel, 10 μM paclitaxel; for QCM frequency increase, Phase II: hour 6 to hour 20 post drug addition
Protocol: (§1) Normal human mammary epithelial cells (HMEC), estrogen receptor-positive human breast cancer cells (MCF-7, a non-metastatic, malignant mammary epithelial cells), and estrogen receptor-negative metastatic human breast cancer cells (MDA-MB-231) were used for this study. These commercially available cells were cultured and harvested as recommended by the supplier, American Type Cell Cultures (ATCC). The cells were then seeded onto the chemically modified conducting surface of separate whole cell QCM biosensors and were allowed to reach the steady state. In general, it takes about 12-14 hours (hours) or less (as quick as within 6 hours) for the cells to reach the steady state on the new selective whole cell QCM biosensors. In contrast, on a QCM biosensor without the selective substrate, it takes about 20-24 hours for the cells to reach steady state. Cell number-dependent characteristic Δf and ΔR shift values of these cells were recorded as described in Marx et al., Biosens. Bioelectron., 16(9-12):773-82, 2001.
(§2) MCF-7 cells, which are resistant to paclitaxel treatment and MDA-MB-231 cells, which are sensitive to paclitaxel treatment were seeded onto two separate whole cell QCM biosensors and allowed to reach steady state as described above.
(§3) Paclitaxel (Sigma Chemical Company) was dissolved in dimethylsulfoxide to make a stock solution. The stock solution was properly diluted in culture media before being added to the cells on the QCM biosensors, so that the final concentration was 10 μM. […] After adding paclitaxel, the Δf and ΔR of the QCMs were monitored and recorded hourly.
(§4) MCF-7 cells and MDA-MB-231 cells were cultured and seeded onto QCM biosensors according to the method described above. The cells were then incubated with 0.1 μM docetaxel (Aventis Pharmaceuticals) and 10 μM paclitaxel. The changes in frequencies and resistances of the QCMs were monitored for 24 hours.

MDA-MB-231 cells [3] = assay: as above; type: cell-based, human; conditions: for QCM frequency decrease, Phase I / increase in QCM resistance, Phase I: hour 0 to hour 6 post drug addition; for QCM frequency decrease, Phase I / increase in QCM resistance, Phase I / QCM frequency increase, Phase II: 0.1 μM docetaxel, 10 μM paclitaxel; for QCM frequency increase, Phase II: hour 6 to hour 20 post drug addition
Protocol: as §1, §2, §3, §4

MCF-7 cells [4] = assay: conventional proliferation assays and apoptosis assays; type: cell-based, human
Protocol: (§5) To confirm that the changes in the QCM frequency and resistance are associated with changes in cell growth or apoptosis, conventional proliferation assays and apoptosis assays were conducted on MDA-MB-231 cells and MCF-7 cells treated with docetaxel or paclitaxel. […] For example, both drugs reduced the mitotic index of MCF-7 cells and eliminated that of MDA-MB-231.

MDA-MB-231 cells [5] = assay: as above; type: cell-based, human
Protocol: as §5

MCF-7 cells [6] = assay: apoptosis assay (DAPI staining; Apoptotic Index and Mitotic Index); type: cell-based, human
Protocol: (§6) Duplicate MCF-7 or MDA-MB-231 cells that were treated with the same dose of paclitaxel were analyzed using an apoptosis assay as described in Warren M. et al., Free Radic Biol Med. 29:537-47, 2000. Briefly, cells were fixed sequentially in 50% and 100% methanol for 5 minutes each. The cells were then stained with 4,6,diamidino-2-phenylindole (DAPI; Sigma) at a final concentration of 0.5 mg/ml at 37° C. for 30 minutes. After being air-dried and mounted with 1:3 PBS-glycerol, chromatin distribution in the cells were visualized by fluorescence. […] Apoptosis was scored as the percentage of apoptotic cells in relation to the total cell number (i.e., Apoptotic Index), corrected for baseline apoptosis. Mitotic cells were also identified and mitosis was scored as the percentage of the mitotic cells in relation to all of the cells (i.e., Mitotic Index).

MDA-MB-231 cells [7] = assay: as above; type: cell-based, human
Protocol: as §6

MCF-7 cells [8] = assay: as above; type: cell-based, human; conditions: 10 μM
[9] = PBS-0.25 mM EGTA, EGTA 1 at hour 112 after cell seeding
[10] = 10 μM, 8 hours post paclitaxel addition
[11] = 10 μM, 50 hours post paclitaxel addition
[12] = 10 μM, between 8 and 50 hours post addition

Structure (SMILES): O=C(O)CN(CCOCCOCCN(CC(=O)O)CC(=O)O)CC(=O)O [EGTA]
- ΔR on initial exposure [1, 9]: large decrease
- Δf on initial exposure [1, 9]: large increase
- time for frequency and resistance to return to stable values ([1]; PBS-0.25 mM EGTA, first exposure): ≤ 2 h
- cell detachment from the surface ([1]; minute 120 after exposing to EGTA): most cells had detached

Structure (SMILES): CC(=O)O[C@@]12CO[C@@H]1C[C@H](O)[C@@]1(C)C(=O)[C@H](O)C3=C(C)[C@@H](OC(=O)[C@H](O)[C@@H](NC(=O)OC(C)(C)C)c4ccccc4)C[C@@](O)([C@@H](OC(=O)c4ccccc4)[C@H]21)C3(C)C [docetaxel]
- QCM frequency decrease, Phase I (MCF-7 cells [2]): −50 Hz
- change in QCM resistance, Phase I (MCF-7 cells [2]): little change
- QCM frequency increase, Phase II (MCF-7 cells [2]): 10-20 Hz
- QCM frequency decrease, Phase I (MDA-MB-231 cells [3]): −70 Hz
- increase in QCM resistance, Phase I (MDA-MB-231 cells [3]): 20 Ohm
- QCM frequency increase, Phase II (MDA-MB-231 cells [3]): 98 Hz
- apoptosis (MCF-7 cells [4]): induced apoptosis
- cell growth (MCF-7 cells [4]): inhibited cell growth
- mitotic index (MCF-7 cells [4]): reduced
- apoptosis (MDA-MB-231 cells [5]): induced apoptosis
- cell growth (MDA-MB-231 cells [5]): inhibited cell growth
- mitotic index (MDA-MB-231 cells [5]): eliminated

Structure (SMILES): CC(=O)O[C@H]1C(=O)[C@@]2(C)[C@H]([C@H](OC(=O)c3ccccc3)[C@]3(O)C[C@H](OC(=O)[C@H](O)[C@@H](NC(=O)c4ccccc4)c4ccccc4)C(C)=C1C3(C)C)[C@]1(OC(C)=O)CO[C@@H]1C[C@@H]2O [paclitaxel]
- Apoptotic Index (AI) (MCF-7 cells [6]; 3 hours, 10 uM): <1%
- Mitotic Index (MI) (MCF-7 cells [6]; 3 hours, 10 uM): 1%
- Apoptotic Index (AI) (MCF-7 cells [6]; 6 hours, 0.1 uM): 1%
- Mitotic Index (MI) (MCF-7 cells [6]; 6 hours, 0.1 uM): 1%
- Apoptotic Index (AI) (MCF-7 cells [6]; 6 hours, 1.0 uM): 4.5%
- Mitotic Index (MI) (MCF-7 cells [6]; 6 hours, 1.0 uM): 0%
- Apoptotic Index (AI) (MCF-7 cells [6]; 6 hours, 10 uM): 11%
- Mitotic Index (MI) (MCF-7 cells [6]; 6 hours, 10 uM): 0%
- Apoptotic Index (AI) (MCF-7 cells [6]; 12 hours, 10 uM): 25%
- Mitotic Index (MI) (MCF-7 cells [6]; 12 hours, 10 uM): 0%
- Apoptotic Index (AI) (MCF-7 cells [6]; 24 hours, 10 uM): 33%
- Mitotic Index (MI) (MCF-7 cells [6]; 24 hours, 10 uM): 0%
- start of obvious cell shape change and eventually apoptosis, time post paclitaxel addition (MDA-MB-231 cells [7]; 10 μM): 8 h
- Apoptotic Index (AI) (MDA-MB-231 cells [7]; 3 hours, 10 uM): <1%
- Mitotic Index (MI) (MDA-MB-231 cells [7]; 3 hours, 10 uM): 0%
- Apoptotic Index (AI) (MDA-MB-231 cells [7]; 6 hours, 0.1 uM): 1%
- Mitotic Index (MI) (MDA-MB-231 cells [7]; 6 hours, 0.1 uM): 0%
- Apoptotic Index (AI) (MDA-MB-231 cells [7]; 6 hours, 1.0 uM): 8.5%
- Mitotic Index (MI) (MDA-MB-231 cells [7]; 6 hours, 1.0 uM): 0%
- Apoptotic Index (AI) (MDA-MB-231 cells [7]; 6 hours, 10 uM): 10%
- Mitotic Index (MI) (MDA-MB-231 cells [7]; 6 hours, 10 uM): 0%
- Apoptotic Index (AI) (MDA-MB-231 cells [7]; 12 hours, 10 uM): 40%
- Mitotic Index (MI) (MDA-MB-231 cells [7]; 12 hours, 10 uM): 0%
- Apoptotic Index (AI) (MDA-MB-231 cells [7]; 24 hours, 10 uM): 84%
- Mitotic Index (MI) (MDA-MB-231 cells [7]; 24 hours, 10 uM): 0%
- ΔR decrease immediately after adding the drug (MCF-7 cells [2]; 10 μM): 50 Ω
- ΔR (MCF-7 cells [2]; [10]): about 40 Ω
- Δf (MCF-7 cells [2]; [10]): −300 Hz
- ΔR (MCF-7 cells [2]; [11]): about 20 Ω
- Δf (MCF-7 cells [2]; [11]): −260 Hz
- magnitude of change of ΔR (MCF-7 cells [2]; [12]): 20 Ω
- magnitude of change of Δf (MCF-7 cells [2]; [12]): 40 Hz
- QCM frequency decrease, Phase I (MCF-7 cells [2]): −20 Hz
- change in QCM resistance, Phase I (MCF-7 cells [2]): little change
- QCM frequency increase, Phase II (MCF-7 cells [2]): 50 Hz
- ΔR increase immediately after adding the drug (MDA-MB-231 cells [3]; 10 μM): about 70 Ω
- ΔR (MDA-MB-231 cells [3]; [10]): about 80 Ω
- Δf (MDA-MB-231 cells [3]; [10]): −250 Hz
- ΔR (MDA-MB-231 cells [3]; [11]): about 40 Ω
- Δf (MDA-MB-231 cells [3]; [11]): −110 Hz
- magnitude of change of ΔR (MDA-MB-231 cells [3]; [12]): 40 Ω
- magnitude of change of Δf (MDA-MB-231 cells [3]; [12]): 140 Hz
- QCM frequency decrease, Phase I (MDA-MB-231 cells [3]): −20 Hz
- increase in QCM resistance, Phase I (MDA-MB-231 cells [3]): little change
- QCM frequency increase, Phase II (MDA-MB-231 cells [3]): 60 Hz
- apoptosis (MCF-7 cells [4]): induced apoptosis
- cell growth (MCF-7 cells [4]): inhibited cell growth
- mitotic index (MCF-7 cells [4]): reduced
- apoptosis (MDA-MB-231 cells [5]): induced apoptosis
- cell growth (MDA-MB-231 cells [5]): inhibited cell growth
- mitotic index (MDA-MB-231 cells [5]): eliminated
- start of obvious cell shape change and eventually apoptosis, time post paclitaxel addition (MCF-7 cells [8]): 8 h
